pIC50: −log10 of the molar value. *1 amine or outer side, *2 acyl side, *3 side chain or, on linkers, in order; H or OH if unused. Where a SMILES comes first, the peptide text is derived from it. Bridges are numbered along the chain shown (N, C = ends). [ ]: non-standard residue; d: D form. X1 = C#CCCC[C@H](O[*:2])C(C)(C)C(=O)[*:1]; X2 = C=CCCC[C@H](O[*:2])C(C)(C)C(=O)[*:1]; X3 = CCCCC[C@H](O[*:2])C(C)(C)C(=O)[*:1]; Hmpa(2S,3S) = CC[C@H](C)[C@H](O)C(=O)O; NMeV = CN[C@H](C(=O)O)C(C)C
What was measured:
HL-60 = assay: Growth inhibition of human HL60 cells after 72 hrs by MTT assay; format: functional, cell-based; conditions: HL-60, 72 h
HeLa = assay: Growth inhibition of human HeLa cells after 72 hrs by MTT assay; format: functional, cell-based

Structure (SMILES) | pIC50 (HL-60) | pIC50 (HeLa)
C#CCCC[C@@H]1OC(=O)[C@H](C)NC(=O)[C@H](CC(C)C)NC(=O)[C@@H]2CCCN2C(=O)[C@H]([C@@H](C)CC)OC(=O)[C@H](C(C)C)N(C)C(=O)[C@H](C(C)C)NC(=O)C1(C)C (V[NMeV][Hmpa(2S,3S)]PLA; linker N-C via X1) | 4.72 | 4.54
C=CCCC[C@@H]1OC(=O)[C@H](C)NC(=O)[C@H](CC(C)C)NC(=O)[C@@H]2CCCN2C(=O)[C@H]([C@@H](C)CC)OC(=O)[C@H](C(C)C)N(C)C(=O)[C@H](C(C)C)NC(=O)C1(C)C (V[NMeV][Hmpa(2S,3S)]PLA; linker N-C via X2) | 5.22 | 4.64
CCCCC[C@@H]1OC(=O)[C@H](C)NC(=O)[C@H](CC(C)C)NC(=O)[C@@H]2CCCN2C(=O)[C@H]([C@@H](C)CC)OC(=O)[C@H](C(C)C)N(C)C(=O)[C@H](C(C)C)NC(=O)C1(C)C (V[NMeV][Hmpa(2S,3S)]PLA; linker N-C via X3) | 4.96 | 4.74
